From patent publication US9562035B2, “Benzamide derivative useful as FASN inhibitors for the treatment of cancer” (Janssen Pharmaceutica NV, priority 2013, dated 2017) come the findings set out here.

Structures are written as SMILES.

Experiment [1] addresses T1, FASN Keto-reductase Domain (Homo sapiens, UniProt P49327).
T1 construct: 10 μL hFASN enzyme (full length, 300 ng, purified in house) and 360 μM NADPH; made in house
Briefly: Fatty Acid Synthase Keto-Reductase Domain (FASN KR) Inhibition. The experiment is classed as biochemical. The following applies: mean where tested more than once; read-out: FASN K-R Domain pIC50 (converted). Here is the method: 10 μL assay buffer (100 mM KH2PO4 pH 7.5) was added to a 384-well clear plate (costar 3702). 0.3 μL compound (at concentrations of 30 μM, 10 μM, 3 μM, 1 μM, 0.30 μM, 0.10 μM, 0.03 μM and 0.01 μM)/DMSO, 10 μL hFASN enzyme (full length, 300 ng, purified in house) and 360 μM NADPH (except in blank) were then added. Then, 10 μL 180 mM ethyl acetoacetate (Aldrich 688983) was added, mixed and immediately thereafter, the absorbance at 340 nm (T1) by Multiscan (Labsystems) was measured. After 20 minutes incubation at room temperature the plate was measured again (T2).
The decrease in absorbance was calculated as (Absorbance before incubation T1)−(Absorbance following incubation T2).
(§1) Raw data generated by the instrument were normalized to % Controlmin values, which were calculated as: % Controlmin=100*(x−mLC)/(mHC−mLC)
(§2) where mLC and mHC were the means of the low control wells and high control wells on the plate, after manual exclusion of outliers. A plot of Controlmin versus test compound concentration was fitted to a 4-parameter logistic curve using a non-linear least squares regression method. From the plot, an IC50 (concentration at which 50% inhibition is achieved) was calculated. pIC50 values were calculated as −log(IC50), when IC50 is expressed in molar units.

Experiment [2] concerns the target T2, hFASN enzyme (full length) (Homo sapiens, UniProt P49327).
T2 construct: 10 μL hFASN enzyme (full length, 300 ng, purified in house); made in house
The experiment can be described thus: Fatty Acid Synthase (FASN) Inhibition Scintillation Proximity Assay. The following applies: for IC50: mean where tested more than once, ~ = standard error of pIC50 larger than 0.5; for inhibition at 10 µM: read-out: FASN % Effect @1E−05M. It is filed as biochemical. Here is the method: In this assay, inhibition of FASN activity is measured using ^3H-acetyl-CoA and malonyl-CoA as substrates. ^3H-Acetyl CoA is converted to ^3H-palmitate through a series of reactions by the FASN protein, which contains 7 functional domains and carries out 7 enzymatic reactions to ultimately produce ^3H-palmitate. The assay principle is based upon the fact that ^3H-acetyl-CoA is hydrophilic and the end product, ^3H-palmitate is hydrophobic.
10 μL assay buffer (100 mM KH2PO4 pH 7.5, 1 mM DTT) (20 μL in blanks) was added to a 384-well white Opti Plate plate (Perkin Elmer). 0.9 μL test compound (at concentrations of 30 μM, 10 μM, 3 μM, 1 μM, 0.30 μM, 0.10 μM, 0.03 μM and 0.01 μM)/DMSO and 10 μL hFASN enzyme (full length, 300 ng, purified in house) or 10 μL assay buffer was added to the wells. Then 10 μL 450 μM NADPH (Sigma N7505), 18.75 μM [^3H]-acetyl-CoA (Perkin Elmer NET-290L), 150 μM malonyl-CoA (Sigma M4263) were added, mixed and incubated at room temperature for 60 minutes. The reaction was stopped by adding 20 μL Streptavidin coupled imaging beads (25 mg/ml). After incubation for 30 minutes at room temperature in the dark, the 384 well plate was centrifuged at 1500 rpm for 3 minutes and was measured after at least 24 hrs by the LEADseeker™, measuring emission using a 610±20 nm pass filter. (Bays, N. W., et al., “A simplified scintillation proximity assay for fatty acid synthase activity: development and comparison with other FAS activity assays”, J. Biomol. Screen, 2009, pp 636-642, Vol. 14(6).)
as §1, §2

T1 sequence (P49327 whole entry, the tested form may be a part): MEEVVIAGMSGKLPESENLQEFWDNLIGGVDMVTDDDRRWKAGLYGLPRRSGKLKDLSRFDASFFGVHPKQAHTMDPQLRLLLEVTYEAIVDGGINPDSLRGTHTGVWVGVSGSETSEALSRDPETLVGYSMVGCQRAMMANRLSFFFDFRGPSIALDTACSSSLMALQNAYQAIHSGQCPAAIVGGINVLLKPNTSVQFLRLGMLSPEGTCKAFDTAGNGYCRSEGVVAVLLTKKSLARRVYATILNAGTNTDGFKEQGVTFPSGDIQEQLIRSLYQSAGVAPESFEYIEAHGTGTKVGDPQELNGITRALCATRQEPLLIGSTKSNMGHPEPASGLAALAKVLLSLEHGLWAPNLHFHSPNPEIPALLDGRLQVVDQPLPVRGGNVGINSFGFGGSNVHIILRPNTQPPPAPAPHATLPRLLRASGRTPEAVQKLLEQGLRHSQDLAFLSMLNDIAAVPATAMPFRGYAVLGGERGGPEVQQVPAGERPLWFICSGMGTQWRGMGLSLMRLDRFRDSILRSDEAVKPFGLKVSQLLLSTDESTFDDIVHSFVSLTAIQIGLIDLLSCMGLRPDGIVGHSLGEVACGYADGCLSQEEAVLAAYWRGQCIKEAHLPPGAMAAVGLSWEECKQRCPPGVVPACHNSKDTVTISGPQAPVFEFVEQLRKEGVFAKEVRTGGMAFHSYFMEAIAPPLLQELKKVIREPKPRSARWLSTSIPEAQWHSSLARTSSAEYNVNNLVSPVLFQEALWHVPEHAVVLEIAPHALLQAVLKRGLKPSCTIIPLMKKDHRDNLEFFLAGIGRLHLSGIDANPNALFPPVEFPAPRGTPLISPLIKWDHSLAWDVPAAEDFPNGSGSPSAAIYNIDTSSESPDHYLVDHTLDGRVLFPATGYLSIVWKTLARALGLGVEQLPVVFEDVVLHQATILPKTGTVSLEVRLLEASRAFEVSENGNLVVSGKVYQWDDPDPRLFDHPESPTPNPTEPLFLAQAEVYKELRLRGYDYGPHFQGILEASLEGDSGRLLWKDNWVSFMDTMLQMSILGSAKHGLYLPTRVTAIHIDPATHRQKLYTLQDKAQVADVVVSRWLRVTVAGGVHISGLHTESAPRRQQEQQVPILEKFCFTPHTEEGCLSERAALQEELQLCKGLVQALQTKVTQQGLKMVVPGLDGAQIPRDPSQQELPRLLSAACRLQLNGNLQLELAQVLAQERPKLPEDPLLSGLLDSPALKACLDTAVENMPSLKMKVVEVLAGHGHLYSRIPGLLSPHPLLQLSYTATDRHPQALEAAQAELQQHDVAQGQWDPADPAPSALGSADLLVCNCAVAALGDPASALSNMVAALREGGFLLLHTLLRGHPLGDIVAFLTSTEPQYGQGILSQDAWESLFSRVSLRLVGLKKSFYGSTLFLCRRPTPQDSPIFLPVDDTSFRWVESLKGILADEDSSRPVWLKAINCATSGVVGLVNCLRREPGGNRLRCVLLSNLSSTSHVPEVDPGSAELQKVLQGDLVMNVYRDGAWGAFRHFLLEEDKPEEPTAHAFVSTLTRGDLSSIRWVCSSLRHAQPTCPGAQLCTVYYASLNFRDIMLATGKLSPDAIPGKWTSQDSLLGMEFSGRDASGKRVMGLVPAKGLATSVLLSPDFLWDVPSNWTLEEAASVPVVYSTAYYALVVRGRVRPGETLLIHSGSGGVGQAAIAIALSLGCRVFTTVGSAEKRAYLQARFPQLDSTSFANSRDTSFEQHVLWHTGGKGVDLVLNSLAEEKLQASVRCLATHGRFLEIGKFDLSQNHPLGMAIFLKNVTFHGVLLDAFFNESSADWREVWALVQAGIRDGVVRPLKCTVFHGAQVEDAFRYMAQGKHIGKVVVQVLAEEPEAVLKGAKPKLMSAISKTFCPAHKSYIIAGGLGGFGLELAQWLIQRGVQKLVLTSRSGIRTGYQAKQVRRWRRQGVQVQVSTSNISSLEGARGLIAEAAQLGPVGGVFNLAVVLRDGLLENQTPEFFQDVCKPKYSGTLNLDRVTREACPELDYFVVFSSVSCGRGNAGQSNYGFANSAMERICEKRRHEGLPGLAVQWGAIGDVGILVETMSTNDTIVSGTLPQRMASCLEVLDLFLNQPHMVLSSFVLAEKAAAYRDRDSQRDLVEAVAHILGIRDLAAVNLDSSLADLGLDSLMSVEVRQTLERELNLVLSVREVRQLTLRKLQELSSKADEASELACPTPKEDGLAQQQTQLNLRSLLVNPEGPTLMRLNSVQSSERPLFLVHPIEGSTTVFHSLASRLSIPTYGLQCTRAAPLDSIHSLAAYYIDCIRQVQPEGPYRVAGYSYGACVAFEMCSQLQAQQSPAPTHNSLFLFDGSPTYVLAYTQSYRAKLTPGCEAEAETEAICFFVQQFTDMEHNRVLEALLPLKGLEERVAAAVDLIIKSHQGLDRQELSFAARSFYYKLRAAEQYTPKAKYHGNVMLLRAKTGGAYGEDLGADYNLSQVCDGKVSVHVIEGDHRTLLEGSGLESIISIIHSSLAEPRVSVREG
T2 sequence (P49327 whole entry): as the sequence (P49327 whole entry, the tested form may be a part) above

Consider `Cc1ccc(C(=O)N2CCC(c3ccc4nccn4c3)CC2)cc1NC(=O)c1ccc(Cl)nc1` [Compound 14, 6-chloro-N-(5-(4-(imidazo[1,2-a]pyridin-6-yl)piperidine-1-carbonyl)-2-methylphenyl)nicotinamide], for which the IC50 in experiment [1] was 17 µM. In experiment [2], the IC50 was above 30.2 µM and the inhibition at 10 µM stood at 30%.
On to `Cc1ccc(C(=O)N2CCC(c3ccc4nccn4c3)CC2)cc1NC(=O)c1ccc(NC(C)C)nc1` [Compound 17, N-(5-(4-(imidazo[1,2-a]pyridin-6-yl)piperidine-1-carbonyl)-2-methylphenyl)-6-(isopropylamino)nicotinamide], for which the IC50 was 8.13 µM in experiment [1] and around 12.9 µM in experiment [2]. For the same molecule, the inhibition at 10 µM in experiment [2] is 51%.
Turning to `Cc1ccc(C(=O)N2CCC(c3ccc4nncn4c3)CC2)cc1NC(=O)c1ccc(Cl)nc1` [Compound 18, N-(5-(4-([1,2,4]triazolo[4,3-a]pyridin-6-yl)piperidine-1-carbonyl)-2-methylphenyl)-6-chloronicotinamide], the IC50 in experiment [1] and in experiment [2] was above 30.2 µM in each case. For the same molecule, the inhibition at 10 µM in experiment [2] came out at 2%.
As for `Cc1ccc(C(=O)N2CCC(c3ccc4c(c3)CN(C)C4=O)CC2)cc1NC(=O)c1ccc(NC(C)C)nc1` [Compound 19, 6-(isopropylamino)-N-(2-methyl-5-(4-(2-methyl-1-oxoisoindolin-5-yl)piperidine-1-carbonyl)phenyl)nicotinamide], in experiment [1], the IC50 was 5.5 µM. Further, in experiment [2], the IC50 was 6.61 µM and the inhibition at 10 µM was found to be 50%.
Regarding `Cc1ccc(C(=O)N2CCC(c3ccc4nncn4c3)CC2)cc1NC(=O)c1ccc(NC(C)C)nc1` [Compound 20, N-(5-(4-([1,2,4]triazolo[4,3-a]pyridin-6-yl)piperidine-1-carbonyl)-2-methylphenyl)-6-(isopropylamino)nicotinamide], in experiment [2], the IC50 was around 30.2 µM and the inhibition at 10 µM was 30%.
For the molecule `Cc1ccc(C(=O)N2CCC(c3ccc4c(c3)C(C)N(C)C4=O)CC2)cc1NC(=O)c1ccc(Cl)nc1` (stereo not shown) [Compound 21, 6-chloro-N-(5-(4-(2,3-dimethyl-1-oxoisoindolin-5-yl)piperidine-1-carbonyl)-2-methylphenyl)nicotinamide], the IC50 in experiment [1] was 13.2 µM. In experiment [2], the IC50 is 27.5 µM and the inhibition at 10 µM came out at 22%.
With `Cc1ccc(C(=O)N2CCC(c3ccc4c(c3)C(C)N(C)C4=O)CC2)cc1NC(=O)c1ccc(NC(C)C)nc1` (stereo not shown) [Compound 22, N-(5-(4-(2,3-dimethyl-1-oxoisoindolin-5-yl)piperidine-1-carbonyl)-2-methylphenyl)-6-(isopropylamino)nicotinamide], the IC50 in experiment [1] was 7.94 µM. In addition, in experiment [2], the IC50 was 4.9 µM and the inhibition at 10 µM was determined as 60%.
As to `Cc1ccc(C(=O)N2CCC(c3ccc4ncsc4c3)CC2)cc1NC(=O)c1ccc(NC(C)C)nc1` [Compound 46, N-(5-(4-(benzo[d]thiazol-6-yl)piperidine-1-carbonyl)-2-methylphenyl)-6-(isopropylamino)nicotinamide], in experiment [2], the IC50 is 2.29 µM and the inhibition at 10 µM stood at 74%.
The matching figures for `Cc1ccc(C(=O)N2CCC(c3ccc4ncsc4c3)CC2)cc1NC(=O)c1ccc(Cl)nc1` [Compound 47, N-(5-(4-(benzo[d]thiazol-6-yl)piperidine-1-carbonyl)-2-methylphenyl)-6-chloronicotinamide]: around 7.76 µM and 60%.
The matching figures for `Cc1ccc(C(=O)N2CC(O)(c3ccc(-c4ccnn4C)cc3)C2)cc1NC(=O)c1ccc(Cl)nc1` [Compound 107, 6-chloro-N-(5-(3-hydroxy-3-(4-(1-methyl-1H-pyrazol-5-yl)phenyl)azetidine-1-carbonyl)-2-methylphenyl)nicotinamide]: above 10 µM and 41%.
Take `Cc1ccc(C(=O)N2CCC(c3ccc(-c4cnn(C)c4)cc3)CC2)cc1NC(=O)c1ccc(N2CCN[C@H](CO)C2)nc1` [Compound 164, (3S)-6-(3-(hydroxymethyl)piperazin-1-yl)-N-(2-methyl-5-(4-(4-(1-methyl-1H-pyrazol-4-yl)phenyl)piperidine-1-carbonyl)phenyl)nicotinamide]: the IC50 in experiment [1] is 0.0417 µM. In experiment [2], the IC50 is 0.0209 µM and the inhibition at 10 µM was 110%.
With `Cc1ccc(C(=O)N2CC(c3ccc(-c4cnn(C)c4)cc3)C2)cc1NC(=O)C1CCCC1` [Compound 226, N-(2-methyl-5-(3-(4-(1-methyl-1H-pyrazol-4-yl)phenyl)azetidine-1-carbonyl)phenyl)cyclopentanecarboxamide], in experiment [2], the IC50 is above 10 µM and the inhibition at 10 µM worked out at 17%.
For `Cc1ccc(C(=O)N2CCC(c3ccc(-c4cnn(C)c4)cc3)CC2)cc1NC(=O)c1nccn1C` [Compound 227, 1-methyl-N-(2-methyl-5-(4-(4-(1-methyl-1H-pyrazol-4-yl)phenyl)piperidine-1-carbonyl)phenyl)-1H-imidazole-2-carboxamide], in experiment [2], the IC50 was 2.45 µM and the inhibition at 10 µM turned out to be 63%.
The matching figures for `Cc1ccc(C(=O)N2CCC(c3ccc(-c4cnn(C)c4)cc3)CC2)cc1NC(=O)c1nc(C(C)(C)C)cs1` [Compound 229, 4-(tert-butyl)-N-(2-methyl-5-(4-(4-(1-methyl-1H-pyrazol-4-yl)phenyl)piperidine-1-carbonyl)phenyl)thiazole-2-carboxamide]: 4.07 µM and 61%.
Taken in the same sequence, the figures for `Cc1ccc(-c2ccc(C3CCN(C(=O)c4ccc(C)c(NC(=O)c5ccc(NC(C)C)nc5)c4)CC3)cc2)cc1` [Compound 234, 6-(isopropylamino)-N-(2-methyl-5-(4-(4′-methyl-[1,1′-biphenyl]-4-yl)piperidine-1-carbonyl)phenyl)nicotinamide] were around 2 µM and 63%.
On to `CN(C(=O)C1CC1)c1ccc(C(=O)N2CCC(c3ccc(-c4cnn(C)c4)cc3)CC2)cc1NC(=O)C1CC1` [Compound 277, N-(2-(cyclopropanecarboxamido)-4-(4-(4-(1-methyl-1H-pyrazol-4-yl)phenyl)piperidine-1-carbonyl)phenyl)-N-methylcyclopropanecarboxamide], for which, in experiment [2], the IC50 was 4.47 µM and the inhibition at 10 µM is 62%.
Molecule `COCCN(C(=O)C1CC1)c1ccc(C(=O)N2CCC(c3ccc(-c4cnn(C)c4)cc3)CC2)cc1NC(=O)C1CC1` [Compound 291, N-(2-(cyclopropanecarboxamido)-4-(4-(4-(1-methyl-1H-pyrazol-4-yl)phenyl)piperidine-1-carbonyl)phenyl)-N-(2-methoxyethyl)cyclopropanecarboxamide] had an IC50 in experiment [2] above 10 µM.
